Measured values taken from PubChem BioAssay AID1963974 (Molecular Pharmacology Branch, DTP, NCI, 2024).

Test system: 648629-189-R-J1-PDC spheroids with HUVEC/MSC, viability
Test: Anticancer human tumor 648629-189-R-J1-PDC patient-derived bladder carcinoma cell line growth inhibition [PI3K]
Conditions: for viability, T/C: stronger effect = lower value; active means viability on the fitted dose curve at most 10% of control; inactive means the rest
How it was run: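 Targeted small molecules plus PI3K inhibitors, half-log dose series from Cmax (default top 10 microM), were applied to heterotypic spheroids of cancer cells with HUVEC and MSCs. Viability indicated growth inhibition.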

[1] = curve of first compound, second compound 0.0316 µM
[2] = curve of first compound, second compound 0.1 µM
[3] = curve of first compound, second compound 0.316 µM
[4] = curve of first compound, second compound 1 µM
[5] = curve of first compound, second compound 3.16 µM
[6] = curve of first compound, second compound 10 µM
[7] = second compound 0.0316 µM, first compound 0.0316 µM
[8] = second compound 0.0316 µM, first compound 0.1 µM
[9] = second compound 0.0316 µM, first compound 0.316 µM
[10] = second compound 0.0316 µM, first compound 1 µM
[11] = second compound 0.0316 µM, first compound 3.16 µM
[12] = second compound 0.0316 µM, first compound 10 µM
[13] = second compound 0.1 µM, first compound 0.0316 µM
[14] = second compound 0.1 µM, first compound 0.1 µM
[15] = second compound 0.1 µM, first compound 0.316 µM
[16] = second compound 0.1 µM, first compound 1 µM
[17] = second compound 0.1 µM, first compound 3.16 µM
[18] = second compound 0.1 µM, first compound 10 µM
[19] = second compound 0.316 µM, first compound 0.0316 µM
[20] = second compound 0.316 µM, first compound 0.1 µM
[21] = second compound 0.316 µM, first compound 0.316 µM
[22] = second compound 0.316 µM, first compound 1 µM
[23] = second compound 0.316 µM, first compound 3.16 µM
[24] = second compound 0.316 µM, first compound 10 µM
[25] = second compound 1 µM, first compound 0.0316 µM
[26] = second compound 1 µM, first compound 0.1 µM
[27] = second compound 1 µM, first compound 0.316 µM
[28] = second compound 1 µM, first compound 1 µM
[29] = second compound 1 µM, first compound 3.16 µM
[30] = second compound 1 µM, first compound 10 µM
[31] = second compound 3.16 µM, first compound 0.0316 µM
[32] = second compound 3.16 µM, first compound 0.1 µM
[33] = second compound 3.16 µM, first compound 0.316 µM
[34] = second compound 3.16 µM, first compound 1 µM
[35] = second compound 3.16 µM, first compound 3.16 µM
[36] = second compound 3.16 µM, first compound 10 µM
[37] = second compound 10 µM, first compound 0.0316 µM
[38] = second compound 10 µM, first compound 0.1 µM
[39] = second compound 10 µM, first compound 0.316 µM
[40] = second compound 10 µM, first compound 1 µM
[41] = second compound 10 µM, first compound 3.16 µM
[42] = second compound 10 µM, first compound 10 µM
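Further: spheroids exposed to agents for seven days before reading.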
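Wherever viability, T/C is given: percent of vehicle control luminescence where 100% = DMSO treated spheroids.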

CC(C)NCC(C(=O)N1CCN(c2ncnc3c2C(C)CC3O)CC1)c1ccc(Cl)cc1 (stereo not drawn) + Cc1nc(NC(=O)N2CCCC2C(N)=O)sc1-c1ccnc(C(C)(C)C(F)(F)F)c1
active: viability, T/C [42] 5.54%
154 nM: IC50 [5]
784 nM: IC50 [2]
inactive: viability, T/C [7] 105% | viability, T/C [8] 82.2% | viability, T/C [9] 73.8% | viability, T/C [10] 40.5% | viability, T/C [11] 23.2% | viability, T/C [12] 15.7% | viability, T/C [13] 102% | viability, T/C [14] 91% | viability, T/C [15] 75.2% | viability, T/C [16] 42.2% | viability, T/C [17] 23.1% | viability, T/C [18] 12.8% | viability, T/C [19] 84.1% | viability, T/C [20] 80.6% | viability, T/C [21] 70.6% | viability, T/C [22] 36.7% | viability, T/C [23] 22% | viability, T/C [24] 12.5% | viability, T/C [25] 69.6% | viability, T/C [26] 88.4% | viability, T/C [27] 57.1% | viability, T/C [28] 34.2% | viability, T/C [29] 21.5% | viability, T/C [30] 12.4% | viability, T/C [31] 61.1% | viability, T/C [32] 53.6% | viability, T/C [33] 43.8% | viability, T/C [34] 32.8% | viability, T/C [35] 20.8% | viability, T/C [36] 10.1% | viability, T/C [37] 38% | viability, T/C [38] 34.6% | viability, T/C [39] 28.7% | viability, T/C [40] 20.1% | viability, T/C [41] 13.2%
< 31.6 nM: IC50 [6]
719 nM: IC50 [1]
648 nM: IC50 [3]
506 nM: IC50 [4]

CC(=O)c1c(C)c2cnc(Nc3ccc(N4CCNCC4)cn3)nc2n(C2CCCC2)c1=O
inactive: viability, T/C (compound 0.000316 µM) 101% [middle of 4 runs] | viability, T/C (compound 0.001 µM) 102% [middle of 4 runs] | viability, T/C (compound 0.00316 µM) 115% [middle of 4 runs] | viability, T/C (compound 0.01 µM) 97.2% [middle of 4 runs] | viability, T/C (compound 0.0316 µM) 100% [middle of 4 runs] | viability, T/C (compound 0.1 µM) 111% [middle of 4 runs]
> 100 nM: IC50 (curve of compound)

Cn1nccc1Nc1nccc(-c2ccn(C(CO)c3ccc(Cl)c(F)c3)c(=O)c2)n1 (stereo not drawn) + Cc1nc(NC(=O)N2CCCC2C(N)=O)sc1-c1ccnc(C(C)(C)C(F)(F)F)c1
inactive: viability, T/C [7] 120% | viability, T/C [8] 96.2% | viability, T/C [9] 112% | viability, T/C [10] 112% | viability, T/C [11] 111% | viability, T/C [12] 74.7% | viability, T/C [13] 93.5% | viability, T/C [14] 105% | viability, T/C [15] 108% | viability, T/C [16] 104% | viability, T/C [17] 96.1% | viability, T/C [18] 79.2% | viability, T/C [19] 94.3% | viability, T/C [20] 97.6% | viability, T/C [21] 98.1% | viability, T/C [22] 102% | viability, T/C [23] 92.8% | viability, T/C [24] 75.4% | viability, T/C [25] 83.3% | viability, T/C [26] 79.4% | viability, T/C [27] 72.8% | viability, T/C [28] 85.7% | viability, T/C [29] 82.2% | viability, T/C [30] 70.6% | viability, T/C [31] 64.4% | viability, T/C [32] 63.1% | viability, T/C [33] 56.8% | viability, T/C [34] 72.1% | viability, T/C [35] 67.1% | viability, T/C [36] 67.1% | viability, T/C [37] 40.2% | viability, T/C [38] 39.5% | viability, T/C [39] 41.5% | viability, T/C [40] 45.5% | viability, T/C [41] 54.9% | viability, T/C [42] 55.1%
> 10000 nM: IC50 [1] | IC50 [2] | IC50 [3] | IC50 [4] | IC50 [5]
< 31.6 nM: IC50 [6]

Cn1ncnc1[C@H]1c2n[nH]c(=O)c3cc(F)cc(c23)N[C@@H]1c1ccc(F)cc1 + Cc1nc(NC(=O)N2CCCC2C(N)=O)sc1-c1ccnc(C(C)(C)C(F)(F)F)c1
89.4 nM: IC50 [4]
> 100 nM: IC50 [1] | IC50 [2] | IC50 [3]
15.9 nM: IC50 [5]
< 0.316 nM: IC50 [6]
inactive: viability, T/C (second compound 0.0316 µM, first compound 0.000316 µM) 117% | viability, T/C (second compound 0.0316 µM, first compound 0.001 µM) 101% | viability, T/C (second compound 0.0316 µM, first compound 0.00316 µM) 91.2% | viability, T/C (second compound 0.0316 µM, first compound 0.01 µM) 82.1% | viability, T/C [7] 83.4% | viability, T/C [8] 64.7% | viability, T/C (second compound 0.1 µM, first compound 0.000316 µM) 115% | viability, T/C (second compound 0.1 µM, first compound 0.001 µM) 96.9% | viability, T/C (second compound 0.1 µM, first compound 0.00316 µM) 93.5% | viability, T/C (second compound 0.1 µM, first compound 0.01 µM) 77.8% | viability, T/C [13] 80.4% | viability, T/C [14] 58.6% | viability, T/C (second compound 0.316 µM, first compound 0.000316 µM) 85.8% | viability, T/C (second compound 0.316 µM, first compound 0.001 µM) 94.5% | viability, T/C (second compound 0.316 µM, first compound 0.00316 µM) 90.8% | viability, T/C (second compound 0.316 µM, first compound 0.01 µM) 78.3% | viability, T/C [19] 68.2% | viability, T/C [20] 52.7% | viability, T/C (second compound 1 µM, first compound 0.000316 µM) 73.8% | viability, T/C (second compound 1 µM, first compound 0.001 µM) 74.8% | viability, T/C (second compound 1 µM, first compound 0.00316 µM) 70.6% | viability, T/C (second compound 1 µM, first compound 0.01 µM) 74.9% | viability, T/C [25] 60.8% | viability, T/C [26] 48.8% | viability, T/C (second compound 3.16 µM, first compound 0.000316 µM) 64.4% | viability, T/C (second compound 3.16 µM, first compound 0.001 µM) 57.6% | viability, T/C (second compound 3.16 µM, first compound 0.00316 µM) 58.4% | viability, T/C (second compound 3.16 µM, first compound 0.01 µM) 48.7% | viability, T/C [31] 49.7% | viability, T/C [32] 43.5% | viability, T/C (second compound 10 µM, first compound 0.000316 µM) 40.6% | viability, T/C (second compound 10 µM, first compound 0.001 µM) 36.1% | viability, T/C (second compound 10 µM, first compound 0.00316 µM) 39.7% | viability, T/C (second compound 10 µM, first compound 0.01 µM) 35% | viability, T/C [37] 29.7% | viability, T/C [38] 28.5%
